Experimental data reported in PubChem BioAssay AID2060601 (Molecular Pharmacology Branch, DTP, NCI, 2025).

Test system: 874868-142-R-J2-PDC complex spheroids, growth % test/control
Experiment: Anticancer human tumor 874868-142-R-J2-PDC patient-derived head and neck squamous carcinoma cell line growth inhibition [CLK]
Settings: for IC50: curve of first compound; for viability, T/C: stronger effect = lower value
Source text: A high-throughput screen of multi-cell type tumor spheroids was designed to identify active combinations of […] and targeted small molecules. Complex spheroids include a stromal component modeled by human endothelial cells (HUVEC) and fibroblasts modeled by human mesenchymal stem cells (MSCs). The concentration ranges selected for each drug and investigational agent were based upon clinically achievable concentrations if the clinical Cmax of the agent was known.
Compounds. The drugs and investigational agents: cirtuvivint (SM08502; NSC835563), CC-671 (NSC850746), vemurafenib (NSC761431), tapotoclax (NSC804041), sotorasib (NSC818433), adagrasib (NSC831453), MRTX-1133 (NSC836407), BAY2416964 (NSC825713), copanlisib (NSC816437), inavolisib (NSC800729), abemaciclib (NSC768073), osimertinib (NSC779217), entinostat (NSC756642), eltanexor (KPT-8602, NSC794443), venetoclax (NSC766270), ceralasertib (NSC777638), bortezomib (NSC756655), olaparib (NSC753686), talazoparib (NSC767125), alisertib (NSC759677), peposertib (NSC802822), gemcitabine (NSC613327), 5-fluorouracil (NSC19893), SN-38 (NSC673596), oxaliplatin (NSC266046), paclitaxel (NSC125973), and doxorubicin (NSC123127), were obtained from the National Cancer Institute (NCI) Developmental Therapeutics Program Chemical Repository. The FDA-approved anticancer drug set is available from the Developmental Therapeutics Program at https://dtp.cancer.gov/organization/dscb/obtaining/available plates.htm. […] The stock solutions were prepared in dimethyl sulfoxide (DMSO, Sigma-Aldrich, St. Louis, MO, cat. D2650), except for the platinum complexes which were prepared in saline (Quality Biological, Gaithersburg, MD, cat. 114-055-101), at 800-fold the tested concentration and stored at -70 degrees C prior to their use. All drugs and investigational agents were tested over a range starting from a high concentration at or near the clinical Cmax and decreasing in half-log increments. If the clinical Cmax for an agent had not been determined, the highest concentration tested was 10 microM.
Cell Culture. All cells were maintained in an incubator at 37 degrees C and 5% CO2 with 95% humidity. The PDC lines were cultured according to standard operating procedures established by the NCI PDMR. Briefly, all PDCs were thawed and cultured in Matrigel-coated flasks prepared with a working solution of 1X Ham's F-12 nutrient mix, without supplementation (Invitrogen, Waltham, MA, cat. 11765054), 100 U/mL penicillin-streptomycin (Invitrogen, cat. 15140122), and 2.5% Matrigel (Corning Inc., Corning, NY, cat. 354248) for the first three passages. The 947758-054-R-J2-PDC line was cultured in 6B/Colon 1A media, which includes advanced DMEM/F-12 (Thermo Fisher Scientific, cat. 12634028), 10 mM HEPES (Thermo Fisher Scientific, cat. 15630080), 1X GlutaMAX supplement (Thermo Fisher Scientific, cat. 35050061), 0.1 mg/mL primocin (InvivoGen, cat. ant-pm-2), 10% defined fetal bovine serum, heat inactivated (HyClone Laboratories Inc., cat. SH30070.03HI), 1.25 mM N-Acetyl-L-cysteine (Sigma-Aldrich, cat. A9165), 10 mM nicotinamide (Sigma-Aldrich, cat. N0636), 1X B-27 supplement (Thermo Fisher Scientific, cat. 17504044), 1X N-2 supplement (Thermo Fisher Scientific, cat. 17502048), and 10 microM Y-27632 dihydrochloride (Tocris Bioscience, cat. 1254). The 876862-298-R-J1-PDC was cultured in 6E media, which includes all 6B/Colon 1A media components plus 50% L-WRN conditioned media (ATCC, cat. CRL-3276), 50 ng/mL recombinant human EGF recombinant protein (hEGF; Thermo Fisher Scientific, cat. PHG0311), 10 ng/mL recombinant human fibroblast growth factor 10 (hGFG-10; PeproTech, cat. 100-26), 1 ng/mL recombinant human fibroblast growth factor 2 (hFGF-2; PeproTech, cat. 100-18B), and 1 µM prostaglandin E2 (PGE2; Tocris, cat. 2296). The 227483-062-R1-J1-PDC line was cultured in Panc media, containing all 6E components except hFGF-2, with the addition of 500 nM SB-431542 (Selleckchem, cat. S1067) and 10 nM gastrin (Tocris, cat. 3006). […]

[1] = second compound 0.0316 µM, first compound 0.0316 µM
[2] = second compound 0.0316 µM, first compound 0.1 µM
[3] = second compound 0.0316 µM, first compound 0.316 µM
[4] = second compound 0.0316 µM, first compound 1 µM
[5] = second compound 0.0316 µM, first compound 3.16 µM
[6] = second compound 0.0316 µM, first compound 10 µM
[7] = second compound 0.1 µM, first compound 0.0316 µM
[8] = second compound 0.1 µM, first compound 0.1 µM
[9] = second compound 0.1 µM, first compound 0.316 µM
[10] = second compound 0.1 µM, first compound 1 µM
[11] = second compound 0.1 µM, first compound 3.16 µM
[12] = second compound 0.1 µM, first compound 10 µM
[13] = second compound 0.316 µM, first compound 0.0316 µM
[14] = second compound 0.316 µM, first compound 0.1 µM
[15] = second compound 0.316 µM, first compound 0.316 µM
[16] = second compound 0.316 µM, first compound 1 µM
[17] = second compound 0.316 µM, first compound 3.16 µM
[18] = second compound 0.316 µM, first compound 10 µM
[19] = second compound 1 µM, first compound 0.0316 µM
[20] = second compound 1 µM, first compound 0.1 µM
[21] = second compound 1 µM, first compound 0.316 µM
[22] = second compound 1 µM, first compound 1 µM
[23] = second compound 1 µM, first compound 3.16 µM
[24] = second compound 1 µM, first compound 10 µM
[25] = second compound 3.16 µM, first compound 0.0316 µM
[26] = second compound 3.16 µM, first compound 0.1 µM
[27] = second compound 3.16 µM, first compound 0.316 µM
[28] = second compound 3.16 µM, first compound 1 µM
[29] = second compound 3.16 µM, first compound 3.16 µM
[30] = second compound 3.16 µM, first compound 10 µM
[31] = second compound 10 µM, first compound 0.0316 µM
[32] = second compound 10 µM, first compound 0.1 µM
[33] = second compound 10 µM, first compound 0.316 µM
[34] = second compound 10 µM, first compound 1 µM
[35] = second compound 10 µM, first compound 3.16 µM
[36] = second compound 10 µM, first compound 10 µM
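Note: spheroids exposed to the compounds for 7 days.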

## C#Cc1c(F)ccc2cc(O)cc(-c3ncc4c(N5CC6CCC(C5)N6)nc(OCC56CCCN5CC(F)C6)nc4c3F)c12 (stereo unspecified) + CN1CCN(c2cc(C(=O)Nc3cc4cc(-c5cnn(C)c5)ccc4cn3)ccn2)CC1
Second compound 0.0316 µM
  IC50: 8540 nM
Second compound 0.1 µM
  IC50: 1410 nM
Second compound 0.316 µM
  IC50: < 31.6 nM
Second compound 1 µM
  IC50: < 31.6 nM
Second compound 3.16 µM
  IC50: < 31.6 nM
Second compound 10 µM
  IC50: < 31.6 nM
[1]
  viability, T/C: 98.2%
[2]
  viability, T/C: 85.1%
[3]
  viability, T/C: 76.3%
[4]
  viability, T/C: 73%
[5]
  viability, T/C: 49.8%
[6]
  viability, T/C: 51.2%
[7]
  viability, T/C: 69.2%
[8]
  viability, T/C: 74.1%
[9]
  viability, T/C: 68.8%
[10]
  viability, T/C: 51.2%
[11]
  viability, T/C: 41.5%
[12]
  viability, T/C: 54.2%
[13]
  viability, T/C: 21%
[14]
  viability, T/C: 24%
[15]
  viability, T/C: 17.3%
[16]
  viability, T/C: 13%
[17]
  viability, T/C: 15.5%
[18]
  viability, T/C: 15.4%
[19]
  viability, T/C: 0.39%
[20]
  viability, T/C: 0.42%
[21]
  viability, T/C: 0.39%
[22]
  viability, T/C: 0.91%
[23]
  viability, T/C: 0.5%
[24]
  viability, T/C: 1.33%
[25]
  viability, T/C: 0.37%
[26]
  viability, T/C: 2.5%
[27]
  viability, T/C: 0.31%
[28]
  viability, T/C: 0.32%
[29]
  viability, T/C: 0.26%
[30]
  viability, T/C: 4.54%
[31]
  viability, T/C: 0.53%
[32]
  viability, T/C: 1.9%
[33]
  viability, T/C: 3.6%
[34]
  viability, T/C: 0.18%
[35]
  viability, T/C: 0.9%
[36]
  viability, T/C: 6.16%

## C=C(F)C(=O)N1CCN(c2nc(OCC3CCCN3C)nc3c2CCN(c2cccc4cccc(Cl)c24)C3)CC1CC#N (stereo unspecified) + CN1CCN(c2cc(C(=O)Nc3cc4cc(-c5cnn(C)c5)ccc4cn3)ccn2)CC1
Second compound 0.0316 µM
  IC50: 4160 nM
Second compound 0.1 µM
  IC50: 2800 nM
Second compound 0.316 µM
  IC50: < 31.6 nM
Second compound 1 µM
  IC50: < 31.6 nM
Second compound 3.16 µM
  IC50: < 31.6 nM
Second compound 10 µM
  IC50: < 31.6 nM
[1]
  viability, T/C: 99.9%
[2]
  viability, T/C: 85.3%
[3]
  viability, T/C: 92%
[4]
  viability, T/C: 93.2%
[5]
  viability, T/C: 60.8%
[6]
  viability, T/C: 15.7%
[7]
  viability, T/C: 69.1%
[8]
  viability, T/C: 70%
[9]
  viability, T/C: 75%
[10]
  viability, T/C: 62%
[11]
  viability, T/C: 48.8%
[12]
  viability, T/C: 4.16%
[13]
  viability, T/C: 16.7%
[14]
  viability, T/C: 17.8%
[15]
  viability, T/C: 22.6%
[16]
  viability, T/C: 16.4%
[17]
  viability, T/C: 23.8%
[18]
  viability, T/C: 0.16%
[19]
  viability, T/C: 0.51%
[20]
  viability, T/C: 0.57%
[21]
  viability, T/C: 2.72%
[22]
  viability, T/C: 0.61%
[23]
  viability, T/C: 0.21%
[24]
  viability, T/C: 0.13%
[25]
  viability, T/C: 0.32%
[26]
  viability, T/C: 0.27%
[27]
  viability, T/C: 0.26%
[28]
  viability, T/C: 0.45%
[29]
  viability, T/C: 1.88%
[30]
  viability, T/C: 0.15%
[31]
  viability, T/C: 0.24%
[32]
  viability, T/C: 0.24%
[33]
  viability, T/C: 2.62%
[34]
  viability, T/C: 0.28%
[35]
  viability, T/C: 0.53%
[36]
  viability, T/C: 0.23%

## CC(CO)NC(=O)c1cc(-c2ccc(Cl)cc2)nn(-c2cnn(C)c2)c1=O (stereo unspecified) + CN1CCN(c2cc(C(=O)Nc3cc4cc(-c5cnn(C)c5)ccc4cn3)ccn2)CC1
Second compound 0.0316 µM
  IC50: > 10000 nM
Second compound 0.1 µM
  IC50: > 10000 nM
Second compound 0.316 µM
  IC50: < 31.6 nM
Second compound 1 µM
  IC50: < 31.6 nM
Second compound 3.16 µM
  IC50: < 31.6 nM
Second compound 10 µM
  IC50: < 31.6 nM
[1]
  viability, T/C: 105%
[2]
  viability, T/C: 99.2%
[3]
  viability, T/C: 82.4%
[4]
  viability, T/C: 92.8%
[5]
  viability, T/C: 93%
[6]
  viability, T/C: 83.8%
[7]
  viability, T/C: 76.1%
[8]
  viability, T/C: 72.2%
[9]
  viability, T/C: 65.8%
[10]
  viability, T/C: 67.9%
[11]
  viability, T/C: 68.5%
[12]
  viability, T/C: 77.2%
[13]
  viability, T/C: 19.4%
[14]
  viability, T/C: 24.8%
[15]
  viability, T/C: 20.6%
[16]
  viability, T/C: 19.1%
[17]
  viability, T/C: 20.2%
[18]
  viability, T/C: 29.1%
[19]
  viability, T/C: 0.42%
[20]
  viability, T/C: 5.08%
[21]
  viability, T/C: 2.66%
[22]
  viability, T/C: 0.31%
[23]
  viability, T/C: 0.63%
[24]
  viability, T/C: 1.19%
[25]
  viability, T/C: 0.31%
[26]
  viability, T/C: 0.77%
[27]
  viability, T/C: 0.29%
[28]
  viability, T/C: 0.32%
[29]
  viability, T/C: 3.04%
[30]
  viability, T/C: 2.75%
[31]
  viability, T/C: 0.18%
[32]
  viability, T/C: 0.21%
[33]
  viability, T/C: 2.19%
[34]
  viability, T/C: 0.22%
[35]
  viability, T/C: 3.03%
[36]
  viability, T/C: 0.28%
